For nine molecules, mass density and speed of sound results are on record in the NIST ThermoML archive (doi:10.1007/s10765-005-8101-x).

The conditions of data set [1]: 298.15 K; 101.33 kPa; Liquid.
A short description of data set [2]: xn = mol fraction of the nth substance listed. The settings on record: 298.15 K, 101 kPa, Liquid.

Broadly, the mass density is the mass of a sample divided by its volume. The speed of sound is the propagation velocity of pressure waves in the medium.

Numbers after ± are expanded uncertainties.

Turning to `CCCCO` [butan-1-ol], in data set [1], the mass density is 806.14 ± 0.59 kg/m3 and the speed of sound is listed as 1240.8 ± 2.9 m/s.

Regarding `CCCCO` [butan-1-ol] + CC(C)O, the mass density in data set [2] (x2 = 0.0596) is given as 804.62 ± 0.95 kg/m3; in data set [2] (x2 = 0.1039), 803.68 ± 0.95 kg/m3; in data set [2] (x2 = 0.2093), 801.62 ± 0.96 kg/m3; in data set [2] (x2 = 0.3024), 799.57 ± 0.96 kg/m3; in data set [2] (x2 = 0.3977), 797.49 ± 0.97 kg/m3; in data set [2] (x2 = 0.5033), 794.92 ± 0.98 kg/m3. For the same molecule, the mass density in data set [2] (x2 = 0.599) worked out at 792.68 ± 0.98 kg/m3; in data set [2] (x2 = 0.6946) it was 790.21 ± 0.99 kg/m3; in data set [2] (x2 = 0.8062), 787.19 ± 1 kg/m3; in data set [2] (x2 = 0.8938) it was 784.58 ± 1 kg/m3. Further, the speed of sound is given as 1235.6 ± 5.5 m/s in data set [2] (x2 = 0.0596); 1231.8 ± 5.5 m/s in data set [2] (x2 = 0.1039); 1223.2 ± 5.4 m/s in data set [2] (x2 = 0.2093); 1214.8 ± 5.4 m/s in data set [2] (x2 = 0.3024); 1206.1 ± 5.4 m/s in data set [2] (x2 = 0.3977); 1195.9 ± 5.4 m/s in data set [2] (x2 = 0.5033). In addition, the speed of sound in data set [2] (x2 = 0.599) was determined as 1186.5 ± 5.3 m/s; in data set [2] (x2 = 0.6946), 1176.4 ± 5.3 m/s; in data set [2] (x2 = 0.8062) it was 1164.1 ± 5.3 m/s; in data set [2] (x2 = 0.8938), 1153.6 ± 5.2 m/s.

Take `CCCCCCO` [hexan-1-ol]: in data set [1], the mass density was 815.15 ± 1.2 kg/m3 and the speed of sound was 1303.6 ± 5.9 m/s.

On to `CCCCCCO` [hexan-1-ol] + CC(C)O, for which the mass density in data set [2] (x2 = 0.039) is 814.4 ± 1.2 kg/m3; in data set [2] (x2 = 0.1037), 813 ± 1.1 kg/m3; in data set [2] (x2 = 0.2075), 810.57 ± 1.1 kg/m3; in data set [2] (x2 = 0.3051), 808.2 ± 1.1 kg/m3; in data set [2] (x2 = 0.4032), 805.42 ± 1.1 kg/m3; in data set [2] (x2 = 0.5067) it was 802.47 ± 1.1 kg/m3. Also, the mass density came out at 799.08 ± 1 kg/m3 in data set [2] (x2 = 0.6044), 795.43 ± 1 kg/m3 in data set [2] (x2 = 0.7047), 791.12 ± 1 kg/m3 in data set [2] (x2 = 0.8059) and 786.44 ± 1 kg/m3 in data set [2] (x2 = 0.9081). The speed of sound in data set [2] (x2 = 0.039) came out at 1299.6 ± 5.9 m/s; in data set [2] (x2 = 0.1037), 1292.9 ± 5.9 m/s; in data set [2] (x2 = 0.2075) it was 1281.1 ± 5.8 m/s; in data set [2] (x2 = 0.3051) it was 1269.2 ± 5.7 m/s; in data set [2] (x2 = 0.4032), 1255.9 ± 5.7 m/s; in data set [2] (x2 = 0.5067), 1241.4 ± 5.6 m/s. The speed of sound in data set [2] (x2 = 0.6044) came out at 1225 ± 5.5 m/s; in data set [2] (x2 = 0.7047), 1207.3 ± 5.4 m/s; in data set [2] (x2 = 0.8059), 1186.8 ± 5.4 m/s; in data set [2] (x2 = 0.9081), 1164.3 ± 5.3 m/s.

Take `CCCCCCCCO` [octan-1-ol]: in data set [1], the mass density is 821.72 ± 2.1 kg/m3 and the speed of sound stood at 1347.9 ± 6.5 m/s.

As to `CCCCCCCCO` [octan-1-ol] + CC(C)O, the mass density in data set [2] (x2 = 0.0862) was determined as 819.96 ± 1.4 kg/m3; in data set [2] (x2 = 0.2078), 817.18 ± 1.4 kg/m3; in data set [2] (x2 = 0.2977) it was 814.58 ± 1.3 kg/m3; in data set [2] (x2 = 0.4059), 811.74 ± 1.2 kg/m3; in data set [2] (x2 = 0.5012), 808.6 ± 1.2 kg/m3; in data set [2] (x2 = 0.5991), 804.77 ± 1.1 kg/m3. Moreover, the mass density in data set [2] (x2 = 0.6994) was 800.52 ± 1.1 kg/m3; in data set [2] (x2 = 0.7985), 795.28 ± 1.1 kg/m3; in data set [2] (x2 = 0.8993), 789.09 ± 1 kg/m3; in data set [2] (x2 = 0.9453) it was 785.8 ± 1 kg/m3. For the same molecule, the speed of sound in data set [2] (x2 = 0.0862) is on record as 1338.7 ± 6.4 m/s; in data set [2] (x2 = 0.2078), 1324.2 ± 6.2 m/s; in data set [2] (x2 = 0.2977) it was 1311.6 ± 6.1 m/s; in data set [2] (x2 = 0.4059), 1296 ± 6 m/s; in data set [2] (x2 = 0.5012), 1279.4 ± 5.9 m/s; in data set [2] (x2 = 0.5991), 1259.8 ± 5.7 m/s. Also, the speed of sound in data set [2] (x2 = 0.6994) amounted to 1237.7 ± 5.6 m/s; in data set [2] (x2 = 0.7985), 1211.1 ± 5.5 m/s; in data set [2] (x2 = 0.8993) it was 1179.3 ± 5.3 m/s; in data set [2] (x2 = 0.9453) it was 1162.8 ± 5.3 m/s.

As to `CCCO` [propan-1-ol], in data set [1], the mass density came out at 800.62 ± 0.6 kg/m3 and the speed of sound is reported as 1208.1 ± 2.8 m/s.

Take `CC(C)O` [propan-2-ol]: in data set [1], the mass density is listed as 781.91 ± 0.62 kg/m3 and the speed of sound stood at 1141.3 ± 2.7 m/s.

Consider `CC(C)O` [propan-2-ol] + CCCO, for which the mass density in data set [2] (x1 = 0.1051) is 798.37 ± 0.97 kg/m3; in data set [2] (x1 = 0.195) it was 796.76 ± 0.97 kg/m3; in data set [2] (x1 = 0.3049) it was 794.67 ± 0.98 kg/m3; in data set [2] (x1 = 0.4062) it was 792.8 ± 0.98 kg/m3; in data set [2] (x1 = 0.4941), 791.17 ± 0.99 kg/m3; in data set [2] (x1 = 0.6029), 789.12 ± 0.99 kg/m3. The mass density in data set [2] (x1 = 0.7067) came out at 787.16 ± 1 kg/m3; in data set [2] (x1 = 0.8063), 785.31 ± 1 kg/m3; in data set [2] (x1 = 0.91), 783.37 ± 1 kg/m3; in data set [2] (x1 = 0.9515) it was 782.54 ± 1 kg/m3. For the same molecule, the speed of sound in data set [2] (x1 = 0.1051) is given as 1201 ± 5.4 m/s; in data set [2] (x1 = 0.195), 1195.4 ± 5.3 m/s; in data set [2] (x1 = 0.3049) it was 1187.9 ± 5.3 m/s; in data set [2] (x1 = 0.4062), 1181.3 ± 5.3 m/s; in data set [2] (x1 = 0.4941), 1175.4 ± 5.3 m/s; in data set [2] (x1 = 0.6029) it was 1168 ± 5.3 m/s. Besides, the speed of sound was 1161 ± 5.2 m/s in data set [2] (x1 = 0.7067), 1154.2 ± 5.2 m/s in data set [2] (x1 = 0.8063), 1147.5 ± 5.2 m/s in data set [2] (x1 = 0.91) and 1144.5 ± 5.2 m/s in data set [2] (x1 = 0.9515).
